Experiments:
AMARE [1] = test: Pre-emergence herbicidal action; type: in vivo, Amaranthus retroflexus; details: scored visually after about 3 weeks vs untreated controls
Excerpt: (§1) 1. Pre-Emergence Herbicidal Action and Crop Plant Compatibility
(§2) Seeds of monocotyledonous and dicotyledonous weed plants and crop plants are placed in plastic or organic planting pots and covered with soil. The compounds of the invention, formulated in the form of wettable powders (WP) or as emulsion concentrates (EC), are then applied onto the surface of the covering soil as aqueous suspension or emulsion with addition of 0.5% additive at a water application rate of 600 l/ha (converted). After the treatment, the pots are placed in a greenhouse and kept under good growth conditions for the trial plants. After about 3 weeks, the effect of the preparations is scored visually in comparison with untreated controls as percentages. The tables below show the herbicidal activity of numerous compounds according to the invention against important harmful plants. For example, 100% activity=the plants have died, 0% activity=like control plants.

ABUTH [2] = test: Post-emergence herbicidal action; type: in vivo, Abutilon theophrasti; details: post-emergence, rated visually after about 3 weeks vs untreated controls
Procedure: (§3) 2. Post-Emergence Herbicidal Action and Crop Plant Compatibility
(§4) Seeds of monocotyledonous and dicotyledonous weeds and crop plants are placed in sandy loam in plastic or organic planting pots, covered with soil and cultivated in a greenhouse under controlled growth conditions. 2 to 3 weeks after sowing, the test plants are treated at the one-leaf stage. The compounds of the invention, formulated in the form of wettable powders (WP) or as emulsion concentrates (EC), are then sprayed onto the green parts of the plants as aqueous suspension or emulsion with addition of 0.5% additive at a water application rate of […] (converted). After the test plants had been kept in the greenhouse under optimum growth conditions for about 3 weeks, the activity of the preparations is rated visually in comparison to untreated controls. The tables below show the herbicidal activity of numerous compounds according to the invention against important harmful plants. For example, 100% activity=the plants have died, 0% activity=like control plants.

VIOTR [3] = test: Post-emergence herbicidal action; type: in vivo, Viola tricolor; details: rated visually after about 3 weeks vs untreated controls
Procedure: as §3, §4

VIOTR [4] = test: Pre-emergence herbicidal action; type: in vivo, Viola tricolor; details: scored visually after about 3 weeks vs untreated controls
Excerpt: as §1, §2

AMARE [5] = test: Post-emergence herbicidal action; type: in vivo, Amaranthus retroflexus; details: rated visually after about 3 weeks vs untreated controls
Procedure: as §3, §4

ECHCG [6] = test: Post-emergence herbicidal action; type: in vivo, Echinochloa crus-galli; details: rated visually after about 3 weeks vs untreated controls
Procedure: as §3, §4

MATIN [7] = test: Post-emergence herbicidal action; type: in vivo, Matricaria inodora; details: 80 g/ha, rated visually after about 3 weeks vs untreated controls
Procedure: as §3, §4

SETVI [8] = test: Post-emergence herbicidal action; type: in vivo, Setaria viridis; details: rated visually after about 3 weeks vs untreated controls
Procedure: as §3, §4

STEME [9] = test: Post-emergence herbicidal action; type: in vivo, Stellaria media; details: 80 g/ha, rated visually after about 3 weeks vs untreated controls
Procedure: as §3, §4

VERPE [10] = test: Post-emergence herbicidal action; type: in vivo, Veronica persica; details: rated visually after about 3 weeks vs untreated controls
Procedure: as §3, §4

CYPES = test: Pre-emergence herbicidal action; type: in vivo, Cyperus esculentus; details: dosage 320 g/ha, scored visually after about 3 weeks vs untreated controls, 100% = plants have died, 0% = like control plants
Excerpt: as §1, §2

VERPE [11] = test: Pre-emergence herbicidal action; type: in vivo, Veronica persica; details: scored visually after about 3 weeks vs untreated controls
Excerpt: as §1, §2

ABUTH [12] = test: Pre-emergence herbicidal action; type: in vivo, Abutilon theophrasti; details: pre-emergence, scored visually after about 3 weeks vs untreated controls
Excerpt: as §1, §2

MATIN [13] = test: Pre-emergence herbicidal action; type: in vivo, Matricaria inodora; details: pre-emergence, scored visually after about 3 weeks vs untreated controls
Excerpt: as §1, §2

PHBPU = test: Post-emergence herbicidal action; type: in vivo, Ipomoea purpurea; details: rated visually after about 3 weeks vs untreated controls
Procedure: as §3, §4

SETVI [14] = test: Pre-emergence herbicidal action; type: in vivo, Setaria viridis; details: pre-emergence, 320 g/ha, scored visually after about 3 weeks vs untreated controls
Excerpt: as §1, §2

STEME [15] = test: Pre-emergence herbicidal action; type: in vivo, Stellaria media; details: 320 g/ha, scored visually after about 3 weeks vs untreated controls
Excerpt: as §1, §2

ECHCG [16] = test: Pre-emergence herbicidal action; type: in vivo, Echinochloa crus-galli; details: 320 g/ha, scored visually after about 3 weeks vs untreated controls
Excerpt: as §1, §2

## Cn1nnnc1NC(=O)c1ccc(Cl)c2c1[S+]([O-])CS2 (centres unmarked) [Example 2-254]
AMARE [1]; 80 g/ha
  herbicidal activity AMARE: 80%

## Cn1ncnc1NC(=O)c1ccc(C(F)(F)F)c2c1OCS2 [Example 1-35]
ABUTH [2]; 20 g/ha
  herbicidal activity ABUTH: 80%
VIOTR [3]; 20 g/ha
  herbicidal activity VIOTR: 80%

## CCn1nnnc1NC(=O)c1ccc(C(F)F)c2c1OCS2 [Example 3-53]
AMARE [1]; 320 g/ha
  herbicidal activity AMARE: 90%
VIOTR [4]; 320 g/ha
  herbicidal activity VIOTR: 100%
ABUTH [2]; 80 g/ha
  herbicidal activity ABUTH: 90%
AMARE [5]; 80 g/ha
  herbicidal activity AMARE: 100%
ECHCG [6]; 80 g/ha
  herbicidal activity ECHCG: 80%
MATIN [7]
  herbicidal activity MATIN: 80%
SETVI [8]; 80 g/ha
  herbicidal activity SETVI: 80%
STEME [9]
  herbicidal activity STEME: 90%
VERPE [10]; 80 g/ha
  herbicidal activity VERPE: 80%
VIOTR [3]; 80 g/ha
  herbicidal activity VIOTR: 90%

## Cc1ccc(C(=O)Nc2nnnn2C)c2c1[S+]([O-])CO2 (centres unmarked) [Example 2-65]
AMARE [1]; 320 g/ha
  herbicidal activity AMARE: 90%
CYPES
  herbicidal activity CYPES: 90%
VERPE [11]; 320 g/ha
  herbicidal activity VERPE: 80%

## COC1Oc2c(C(=O)Nc3nnnn3C)ccc(C(F)(F)F)c2S1 (centres unmarked) [Example 2-112, 2-methoxy-4-(trifluoromethyl)-1,3-benzoxathiolane-N-(1-methyltetrazol-5-yl)-7-carboxamide]
ABUTH [12]; 80 g/ha
  herbicidal activity ABUTH: 100%
AMARE [1]; 80 g/ha
  herbicidal activity AMARE: 90%
VERPE [11]; 80 g/ha
  herbicidal activity VERPE: 80%
VIOTR [4]; 80 g/ha
  herbicidal activity VIOTR: 100%
ABUTH [2]; 20 g/ha
  herbicidal activity ABUTH: 90%
AMARE [5]; 20 g/ha
  herbicidal activity AMARE: 80%
ECHCG [6]; 20 g/ha
  herbicidal activity ECHCG: 80%
SETVI [8]; 20 g/ha
  herbicidal activity SETVI: 80%
VERPE [10]; 20 g/ha
  herbicidal activity VERPE: 80%

## Cn1ncnc1NC(=O)c1ccc(C(F)(F)F)c2c1OC[S+]2[O-] (centres unmarked) [Example 1-50]
MATIN [13]; 80 g/ha
  herbicidal activity MATIN: 90%
ABUTH [2]; 20 g/ha
  herbicidal activity ABUTH: 80%
AMARE [5]; 20 g/ha
  herbicidal activity AMARE: 80%
VIOTR [3]; 20 g/ha
  herbicidal activity VIOTR: 80%

## Cn1nnnc1NC(=O)c1ccc(S(C)(=O)=O)c2c1OCS2 [Example 2-58]
ABUTH [2]; 20 g/ha
  herbicidal activity ABUTH: 80%
AMARE [5]; 20 g/ha
  herbicidal activity AMARE: 80%

## COC1Sc2c(C(=O)Nc3nnnn3C)ccc(C(F)(F)F)c2S1 (centres unmarked) [Example 2-257]
ABUTH [2]; 20 g/ha
  herbicidal activity ABUTH: 90%
ECHCG [6]; 20 g/ha
  herbicidal activity ECHCG: 100%
VIOTR [3]; 20 g/ha
  herbicidal activity VIOTR: 80%

## Cn1nnnc1NC(=O)c1ccc(C(F)F)c2c1OCS2 [Example 2-54]
AMARE [1]; 320 g/ha
  herbicidal activity AMARE: 80%
ABUTH [2]; 80 g/ha
  herbicidal activity ABUTH: 80%
AMARE [5]; 80 g/ha
  herbicidal activity AMARE: 90%
ECHCG [6]; 80 g/ha
  herbicidal activity ECHCG: 100%
PHBPU; 80 g/ha
  herbicidal activity PHBPU: 80%
SETVI [8]; 80 g/ha
  herbicidal activity SETVI: 90%
VERPE [10]; 80 g/ha
  herbicidal activity VERPE: 90%
VIOTR [3]; 80 g/ha
  herbicidal activity VIOTR: 100%

## Cn1ncnc1NC(=O)c1ccc(C(F)(F)F)c2c1OCS2(=O)=O [Example 1-65]
AMARE [5]; 20 g/ha
  herbicidal activity AMARE: 80%
PHBPU; 20 g/ha
  herbicidal activity PHBPU: 80%

## Cn1nnnc1NC(=O)c1ccc(C(F)F)c2c1OCS2(=O)=O [Example 2-84]
ABUTH [12]; 320 g/ha
  herbicidal activity ABUTH: 90%
AMARE [1]; 320 g/ha
  herbicidal activity AMARE: 100%
MATIN [13]; 320 g/ha
  herbicidal activity MATIN: 100%
SETVI [14]
  herbicidal activity SETVI: 90%
STEME [15]
  herbicidal activity STEME: 90%
VERPE [11]; 320 g/ha
  herbicidal activity VERPE: 100%
VIOTR [4]; 320 g/ha
  herbicidal activity VIOTR: 100%
ABUTH [2]; 80 g/ha
  herbicidal activity ABUTH: 90%
AMARE [5]; 80 g/ha
  herbicidal activity AMARE: 100%
ECHCG [6]; 80 g/ha
  herbicidal activity ECHCG: 90%
MATIN [7]
  herbicidal activity MATIN: 100%
PHBPU; 80 g/ha
  herbicidal activity PHBPU: 90%
SETVI [8]; 80 g/ha
  herbicidal activity SETVI: 100%
STEME [9]
  herbicidal activity STEME: 100%
VERPE [10]; 80 g/ha
  herbicidal activity VERPE: 100%
VIOTR [3]; 80 g/ha
  herbicidal activity VIOTR: 100%

## Cn1nnnc1NC(=O)c1ccc(C(F)F)c2c1OC[S+]2[O-] (centres unmarked) [Example 2-69]
ABUTH [12]; 320 g/ha
  herbicidal activity ABUTH: 100%
AMARE [1]; 320 g/ha
  herbicidal activity AMARE: 100%
ECHCG [16]
  herbicidal activity ECHCG: 90%
MATIN [13]; 320 g/ha
  herbicidal activity MATIN: 90%
SETVI [14]
  herbicidal activity SETVI: 90%
STEME [15]
  herbicidal activity STEME: 90%
VERPE [11]; 320 g/ha
  herbicidal activity VERPE: 90%
VIOTR [4]; 320 g/ha
  herbicidal activity VIOTR: 100%
ABUTH [2]; 80 g/ha
  herbicidal activity ABUTH: 90%
AMARE [5]; 80 g/ha
  herbicidal activity AMARE: 90%
ECHCG [6]; 80 g/ha
  herbicidal activity ECHCG: 100%
MATIN [7]
  herbicidal activity MATIN: 90%
PHBPU; 80 g/ha
  herbicidal activity PHBPU: 80%
SETVI [8]; 80 g/ha
  herbicidal activity SETVI: 80%
STEME [9]
  herbicidal activity STEME: 100%
VERPE [10]; 80 g/ha
  herbicidal activity VERPE: 90%
VIOTR [3]; 80 g/ha
  herbicidal activity VIOTR: 100%

Source: patent US11897904B2, “Herbicidally active bicyclic benzamides” (Bayer Aktiengesellschaft, priority 2017, dated 2024)
